These are literature values, as cited in patent publication US20100233259A1, “DOSAGE FORM OF ROPINIROLE” (priority 2008, published 2010).

For the data set the following is noted: in vivo.

In the case of `CCCN(CCC)CCc1cccc2c1CC(=O)N2` [Ropinirole], the half life is 5 to 6 h.
